Values quoted from earlier work in US20100285114A1, “PHARMACEUTICAL COMPOSITIONS OF RHEIN OR DIACEREIN” (priority 2007, published 2010).
Counter-ions that a name gives are not always drawn.

Key:
[1] = in vivo

SMILES	solubility in water (disclosed in EP 243,968)	soft stool effect expected due to inherent pharmacokinetic property (enterohepatic circulation) [1]	solubility (in water, alcohols, acetone, dichloromethane and chloroform)
CC(=O)Oc1cccc2c1C(=O)c1c(OC(C)=O)cc(C(=O)O)cc1C2=O [potassium salt of diacerein]	water-soluble		
CC(=O)Oc1cccc2c1C(=O)c1c(OC(C)=O)cc(C(=O)O)cc1C2=O [diacerein, 4,5-bis (acetyloxy) 9,10-dihydro-4,5-dihydroxy-9,10-dioxo-2-anthracenecarboxylic acid]		30-40%	practically insoluble
